# Columns and labels:
# MARK4 [1] = biological target: T1, MARK4 (Homo sapiens, UniProt Q96L34); test: Steady-state fluorescence quenching binding studies; conditions: for Kq (bimolecular quenching rate constant): Kq=Ksv/τ0; for ∆G: van't Hoff equation
# T1 construct: made in house
# T1 sequence (Q96L34 1-752): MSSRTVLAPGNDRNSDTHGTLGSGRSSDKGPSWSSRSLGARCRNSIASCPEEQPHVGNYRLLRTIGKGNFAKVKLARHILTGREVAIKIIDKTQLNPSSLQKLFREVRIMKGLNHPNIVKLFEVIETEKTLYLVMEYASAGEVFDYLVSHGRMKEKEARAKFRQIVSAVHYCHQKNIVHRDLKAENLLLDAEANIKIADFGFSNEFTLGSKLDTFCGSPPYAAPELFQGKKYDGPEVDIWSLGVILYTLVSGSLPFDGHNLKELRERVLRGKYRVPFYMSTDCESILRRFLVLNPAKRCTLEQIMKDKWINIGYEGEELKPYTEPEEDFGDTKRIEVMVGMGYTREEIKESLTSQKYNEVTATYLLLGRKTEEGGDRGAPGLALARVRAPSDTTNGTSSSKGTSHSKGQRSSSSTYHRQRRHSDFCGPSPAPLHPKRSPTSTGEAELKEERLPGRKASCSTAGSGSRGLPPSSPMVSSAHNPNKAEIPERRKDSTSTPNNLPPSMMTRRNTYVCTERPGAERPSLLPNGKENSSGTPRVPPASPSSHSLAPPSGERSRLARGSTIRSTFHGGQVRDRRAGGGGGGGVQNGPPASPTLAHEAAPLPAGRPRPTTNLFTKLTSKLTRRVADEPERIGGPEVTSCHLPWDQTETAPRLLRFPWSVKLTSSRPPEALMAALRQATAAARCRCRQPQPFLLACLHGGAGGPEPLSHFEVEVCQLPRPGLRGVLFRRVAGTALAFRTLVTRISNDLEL
# Experimental: Fluorescence quenching experiments were carried out on Jasco FP-6200 spectrofluorometer attached with an external water bath which serves as a temperature controller. The experiment was carried out at three different temperatures in triplicates. The protein concentration was kept constant at 4 µM while the ligand was titrated in the ratio of 1:9 at all three temperatures (288 K, 298 K, and 305 K). The fluorescence intensities were corrected for the inner filter effect according to Chi & Liu, 2011[57] the following equation:1 Fcorrected=Fobservede^(Aex+Aobs)/2
# Aex and Aobs are the absorption of the system at excitation and emission wavelengths, respectively. The fluorescence intensities were corrected after taking filter effect into account and all the reported spectra are the subtracted spectra taking fluorescence of ligand alone. Fluorescence quenching data was further analyzed employing Stern-Volmer, modified Stern-Volmer and van’t Hoff equation.
# To analyze the quenching data, Stern Volmer equation (Eq. 2) was deployed to find the Stern-Volmer constant:2 F0/F=1+Ksv[C] where F0 & F are fluorescence intensity of MARK4 in the absence and presence of RA, [C] is the concentration of RA. Ksv refers to Stern–Volmer constant.
# The Ksv value decreases with increasing temperature for static quenching while the opposite effect is observed for dynamic quenching. […] Thus, we can say that the MARK4-RA complex formation is driven by the dynamic mode of quenching. The mode of quenching was further confirmed from the value of bimolecular quenching rate constant, Kq, which was calculated as per Eq. 33 Kq=Ksv/τ0 τo refers to the average integral fluorescence lifetime of tryptophan and is reported to be 2.7 × 10^-9 s.
# Further, decrease in fluorescence in the presence of RA was analyzed by modified Stern-Volmer equation (Eq. 4)[63],[64].4 logF0−F/F=logK+nlog[C]
# Using van’t Hoff equation (Eq. 5)[65], thermodynamic parameters for ligand-protein interaction such as Gibbs free energy change (∆G), enthalpy change (∆H) and entropy change (∆S) can be calculated.5 ΔG=−RTLnK=ΔH−TΔS K is the binding constant, ∆H is enthalpy change, ∆G is Gibbs free energy change, ∆S is entropy change, and R is the universal gas constant (1.987 cal mol^−1 K^−1). The experimental fitting of data as per Eq. 5 is shown in Fig. 6C […]. The slope of this plot gives the value of -∆H/R, and the intercept giving the value of ∆S/R.“T”.
# MDA-MB-231 cells [2] = test: Cell apoptosis assay (Annexin-V/PI staining); assay type: cell-based, human; conditions: 72 h
# Experimental: Apoptosis inducing properties of RA was studied using Annexin-V/PI staining as described previously[58],[60]. In brief, cells were treated with IC50 and 2 × IC50 doses of RA for 72 h at 37 °C, while control cells were treated with cell culture media only or vehicle control. After 72 h incubation, ~1.0–1.5 × 10^6 cells were collected, washed three times with PBS and stained using FITC labeled Annexin-V and PI (BD-Biosciences, USA). Stained cells were analyzed using BD LSR II Flow Cytometry Analyzer and FlowJo.
# MARK4 [3] = test: MARK4 protein expression by western blot; assay type: cell-based, human; conditions: MDA-MB-231 cells, IC50 concentration, 48 h, immunoblotting
# Experimental: MDA-MB-231 vehicle control or RA treated cells were lysed in RIPA cell lysis buffer (Thermo Fisher Scientific, USA). Total protein was isolated and quantified by Bicinchoninic acid assay kit. Approximately 30–40 μg of whole-cell protein was diluted with 6X Laemmli’s buffer, boiled for 3–5 min and resolved using 12% SDS-polyacrylamide electrophoresis under reducing conditions. The resolved polypeptides were transferred to polyvinylidene fluoride (PVDF) membrane using blotting and identified using protein-specific primary antibodies and horseradish peroxidase conjugated secondary antibodies. Luminol was used as a chemiluminescent substrate for HRP[56].
# MARK4 [4] = biological target: T1, MARK4; test: Isothermal titration calorimetry; assay type: binding
# Experimental: ITC measurements were done at 25 °C on a VP-ITC microcalorimeter from MicroCal, Inc (GE, MicroCal, USA). The first injection was a false one of 2 s with other injections set at 10 s. The sample cell was filled with MARK4 with reference cell with a reference buffer and a syringe containing 500 µM RA was titrated into MARK4. MicroCal Origin 8.0 was used to analyze the obtained data.
# phosphorylation of tau = test: Tau-phosphorylation assay (flow cytometry); assay type: cell-based, human; conditions: SH-SY5Y cells, IC50 and 2 × IC50 doses, 48 h, vs untreated cells
# Experimental: To see the effect of RA treatment on the activity of MARK4, Tau-phosphorylation studies were performed as per the previously published protocol. Briefly, SH-SY5Y cells were incubated with IC50 and 2 × IC50 doses of RA. Approximately, 10^6 cells were collected after 48 h treatment, washed with PBS, fixed and incubated with anti-tau antibodies at 25 °C for 2–4 hrs. Following the incubation, cells were washed and analyzed by flow cytometry.
# MARK4 [5] = biological target: T1, MARK4; test: ATPase enzyme inhibition assay (malachite green); assay type: biochemical; conditions: RA 0–18 µM, ATP 200 µM, MARK4 4 µM, 25 °C, 1 hour
# Experimental: To see the inhibitory effect of RA on MARK4, an ATPase assay was carried out in the presence of increasing concentrations of RA. Freshly prepared ATP (200 µM) was added to MARK4 (4 µM) and final reaction mixture of 100 μl was incubated at 25 °C for 1 hour. Malachite green (200 μl) was further added to the reaction mixture to stop the reaction followed by incubation of samples at room temperature for 20–25 minutes for the development of color. From the final reaction mixture, 100 μl was transferred to a 96-well plate in triplicates to measure spectrophotometrically at 620 nm.
# MDA-MB-231 cells [6] = test: MTT cell viability, MDA-MB-231; assay type: cell-based, human; conditions: MDA-MB-231, 0–200 μM, 72 h
# A549 cells = test: MTT cell viability, A549; assay type: cell-based, human; conditions: A549, 0–200 μM, 72 h
# Experimental: The cytotoxicity studies of selected synthesized compounds were accessed using standard MTT assay[16],[58],[59]. Briefly, 5000–6000 cells/well were plated in 96-well cell culture plate and next day cells were treated with selected compounds (0–200 μM) for 72 h. After 72 h incubation, the culture medium was removed and after washing with phosphate buffer saline (pH 7.4) cells were incubated with MTT solution (a mixture of 100 µl in complete medium and 25 µl of MTT solution taken from 5 mg/ml stock), at 37 °C in the CO2 incubator. Afterward, the resultant formazan crystals were dissolved in 150–200 µl of DMSO and the absorbance of the reaction product was measured at 570 nm using a multiplate ELISA reader (BioRad). The percentage of cell viability was calculated and plotted as a function of RA concentration.
# [7] = Binding constant (K), fluorescence quenching studies, temperature not given
# [8] = van't Hoff plot, 288, 298 and 305 K
smiles,measurement,setting,value
O=c1c(O)c(-c2ccc(O)c(O)c2)oc2cc(O)cc(O)c12 [Quercetin],Kd,MARK4 [1]; [7],9760 µM
O=C(/C=C/c1ccc(O)c(O)c1)O[C@H](Cc1ccc(O)c(O)c1)C(=O)O [Rosmarinic acid],apoptotic cells,"MDA-MB-231 cells [2]; MDA-MB-231, 2 × IC50 concentration",15.90%
same,apoptotic cells,"MDA-MB-231 cells [2]; MDA-MB-231, IC50 concentration",9.0%
same,protein expression level of MARK4,MARK4 [3],decreases the expression of MARK4
same,Kd,MARK4 [4],0.227 µM
same,∆S,"MARK4 [4]; ITC, 25 °C",−26.4 cal.mol^−1K^−1
same,Ksv (Stern-Volmer constant),MARK4 [1]; 288 K,11.5 10^5 M^−1
same,TΔS°,MARK4 [1]; 288 K,-12.0468 kcal/mol
same,n (number of binding sites),MARK4 [1]; 288 K,1.34
same,Kq (bimolecular quenching rate constant),MARK4 [1]; 288 K,4.25 10^14M^-1 s^-1
same,binding constant (K),"MARK4 [1]; 288 K, double log relation",5e+06 M⁻¹
same,∆G,MARK4 [1]; 288 K,-8.956 kcal/mol
same,Ksv (Stern-Volmer constant),MARK4 [1]; 298 K,24.9 10^5 M^−1
same,TΔS°,MARK4 [1]; 298 K,-12.4651 kcal/mol
same,n (number of binding sites),MARK4 [1]; 298 K,1.22
same,Kq (bimolecular quenching rate constant),MARK4 [1]; 298 K,9.22 10^14M^-1 s^-1
same,binding constant (K),"MARK4 [1]; 298 K, double log relation",2e+06 M⁻¹
same,∆G,MARK4 [1]; 298 K,-8.538 kcal/mol
same,Ksv (Stern-Volmer constant),MARK4 [1]; 305 K,29.4 10^5 M^−1
same,TΔS°,MARK4 [1]; 305 K,-12.7579 kcal/mol
same,n (number of binding sites),MARK4 [1]; 305 K,1.10
same,Kq (bimolecular quenching rate constant),MARK4 [1]; 305 K,10.88 10^14M^-1 s^-1
same,binding constant (K),"MARK4 [1]; 305 K, double log relation",700000 M⁻¹
same,∆G,MARK4 [1]; 305 K,-8.245 kcal/mol
same,Kd,MARK4 [1]; [7],0.1 µM
same,Kd,"MARK4 [1]; K (binding constant), 288 K, modified Stern-Volmer",0.2 µM
same,Kd,"MARK4 [1]; K (binding constant), 298 K, modified Stern-Volmer",0.5 µM
same,Kd,"MARK4 [1]; K (binding constant), 305 K, modified Stern-Volmer",1.43 µM
same,∆H,MARK4 [1]; [8],-21.003 kcal/mol
same,∆S,MARK4 [1]; [8],−41.82 calmol^−1K^−1
same,phosphorylation of tau,phosphorylation of tau,decreases phosphorylation of tau
same,IC50,MARK4 [5],6.2 µM
same,cell growth / viability,MDA-MB-231 cells [6],significantly inhibited the growth
same,cell growth / viability,A549 cells,significantly inhibited the growth
COc1cc(/C=C/C(=O)O)ccc1O [Ferulic Acid],binding constant (K),"MARK4 [1]; fluorescence quenching studies, temperature not given",50 M⁻¹
COc1cc(C=O)ccc1O [Vanillin],Kd,MARK4 [1]; [7],6.21 µM
O=c1oc2c(O)c(O)cc3c(=O)oc4c(O)c(O)cc1c4c23 [Ellagic Acid],Kd,MARK4 [1]; [7],9900 µM
